From article PMC7156458, “Synthetic biology based construction of biological activity-related library of fungal decalin-containing diterpenoid pyrones” (Nature Communications, 2020)

Target: Aβ42 (Homo sapiens, UniProt P05067)
Assay: Th-T (thioflavin-T) assay of Aβ42 aggregation
Type: biochemical
Details: for Th-T fluorescence of Aβ42 with compound, mean of three wells (Fig. 7a source data): concentration 50, unit not given

Sequence of Aβ42 (P05067 672-713): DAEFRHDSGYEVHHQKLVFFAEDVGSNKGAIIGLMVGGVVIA

## C=C1CCC2C(C)(CCC=C(C)C)C(O)CCC2(C)C1Cc1c(OC)oc(CO)c(C(=O)OC)c1=O (stereo not drawn) [Compound 13]
time-course reading M143
  Th-T fluorescence of Aβ42 with compound, mean of three wells (Fig. 7a source data): 0.478
time-course reading M144
  Th-T fluorescence of Aβ42 with compound, mean of three wells (Fig. 7a source data): 0.478
time-course reading M145
  Th-T fluorescence of Aβ42 with compound, mean of three wells (Fig. 7a source data): 0.4736
Head suffix _10 (concentration 10), reading M63
  Th-T fluorescence of Aβ42 (sheet Fig. 7a), mean of three wells: 1.556
Head suffix _10 (concentration 10), reading M64
  Th-T fluorescence of Aβ42 (sheet Fig. 7a), mean of three wells: 1.557
Head suffix _10 (concentration 10), reading M65
  Th-T fluorescence of Aβ42 (sheet Fig. 7a), mean of three wells: 1.551
Head suffix _10 (concentration 10), reading M66
  Th-T fluorescence of Aβ42 (sheet Fig. 7a), mean of three wells: 1.553
Head suffix _10 (concentration 10), reading M67
  Th-T fluorescence of Aβ42 (sheet Fig. 7a), mean of three wells: 1.558
Head suffix _10 (concentration 10), reading M68
  Th-T fluorescence of Aβ42 (sheet Fig. 7a), mean of three wells: 1.564
Head suffix _10 (concentration 10), reading M69
  Th-T fluorescence of Aβ42 (sheet Fig. 7a), mean of three wells: 1.56
Head suffix _10 (concentration 10), reading M70
  Th-T fluorescence of Aβ42 (sheet Fig. 7a), mean of three wells: 1.554
Head suffix _10 (concentration 10), reading M71
  Th-T fluorescence of Aβ42 (sheet Fig. 7a), mean of three wells: 1.549
Head suffix _10 (concentration 10), reading M72
  Th-T fluorescence of Aβ42 (sheet Fig. 7a), mean of three wells: 1.561
Head suffix _10 (concentration 10), reading M73
  Th-T fluorescence of Aβ42 (sheet Fig. 7a), mean of three wells: 1.566
Head suffix _10 (concentration 10), reading M74
  Th-T fluorescence of Aβ42 (sheet Fig. 7a), mean of three wells: 1.559
Head suffix _10 (concentration 10), reading M75
  Th-T fluorescence of Aβ42 (sheet Fig. 7a), mean of three wells: 1.561
Head suffix _10 (concentration 10), reading M76
  Th-T fluorescence of Aβ42 (sheet Fig. 7a), mean of three wells: 1.555
Head suffix _10 (concentration 10), reading M77
  Th-T fluorescence of Aβ42 (sheet Fig. 7a), mean of three wells: 1.558
Head suffix _10 (concentration 10), reading M78
  Th-T fluorescence of Aβ42 (sheet Fig. 7a), mean of three wells: 1.561
Head suffix _10 (concentration 10), reading M79
  Th-T fluorescence of Aβ42 (sheet Fig. 7a), mean of three wells: 1.5579
Head suffix _10 (concentration 10), reading M80
  Th-T fluorescence of Aβ42 (sheet Fig. 7a), mean of three wells: 1.555
Head suffix _10 (concentration 10), reading M81
  Th-T fluorescence of Aβ42 (sheet Fig. 7a), mean of three wells: 1.559
Head suffix _10 (concentration 10), reading M82
  Th-T fluorescence of Aβ42 (sheet Fig. 7a), mean of three wells: 1.556
Head suffix _10 (concentration 10), reading M83
  Th-T fluorescence of Aβ42 (sheet Fig. 7a), mean of three wells: 1.5605
Head suffix _10 (concentration 10), reading M84
  Th-T fluorescence of Aβ42 (sheet Fig. 7a), mean of three wells: 1.551
Head suffix _20 (concentration 20), reading M63
  Th-T fluorescence of Aβ42 (sheet Fig. 7a), mean of three wells: 1.031
Head suffix _20 (concentration 20), reading M64
  Th-T fluorescence of Aβ42 (sheet Fig. 7a), mean of three wells: 1.035
Head suffix _20 (concentration 20), reading M65
  Th-T fluorescence of Aβ42 (sheet Fig. 7a), mean of three wells: 1.042
Head suffix _20 (concentration 20), reading M66
  Th-T fluorescence of Aβ42 (sheet Fig. 7a), mean of three wells: 1.05
Head suffix _20 (concentration 20), reading M67
  Th-T fluorescence of Aβ42 (sheet Fig. 7a), mean of three wells: 1.057
Head suffix _20 (concentration 20), reading M68
  Th-T fluorescence of Aβ42 (sheet Fig. 7a), mean of three wells: 1.061
Head suffix _20 (concentration 20), reading M69
  Th-T fluorescence of Aβ42 (sheet Fig. 7a), mean of three wells: 1.053
Head suffix _20 (concentration 20), reading M70
  Th-T fluorescence of Aβ42 (sheet Fig. 7a), mean of three wells: 1.058
Head suffix _20 (concentration 20), reading M71
  Th-T fluorescence of Aβ42 (sheet Fig. 7a), mean of three wells: 1.058
Head suffix _20 (concentration 20), reading M72
  Th-T fluorescence of Aβ42 (sheet Fig. 7a), mean of three wells: 1.061
Head suffix _20 (concentration 20), reading M73
  Th-T fluorescence of Aβ42 (sheet Fig. 7a), mean of three wells: 1.063
Head suffix _20 (concentration 20), reading M74
  Th-T fluorescence of Aβ42 (sheet Fig. 7a), mean of three wells: 1.057
Head suffix _20 (concentration 20), reading M75
  Th-T fluorescence of Aβ42 (sheet Fig. 7a), mean of three wells: 1.056
Head suffix _20 (concentration 20), reading M76
  Th-T fluorescence of Aβ42 (sheet Fig. 7a), mean of three wells: 1.058
Head suffix _20 (concentration 20), reading M77
  Th-T fluorescence of Aβ42 (sheet Fig. 7a), mean of three wells: 1.059
Head suffix _20 (concentration 20), reading M78
  Th-T fluorescence of Aβ42 (sheet Fig. 7a), mean of three wells: 1.0603
Head suffix _20 (concentration 20), reading M79
  Th-T fluorescence of Aβ42 (sheet Fig. 7a), mean of three wells: 1.056
Head suffix _20 (concentration 20), reading M80
  Th-T fluorescence of Aβ42 (sheet Fig. 7a), mean of three wells: 1.0496
Head suffix _20 (concentration 20), reading M81
  Th-T fluorescence of Aβ42 (sheet Fig. 7a), mean of three wells: 1.051
Head suffix _20 (concentration 20), reading M82
  Th-T fluorescence of Aβ42 (sheet Fig. 7a), mean of three wells: 1.061
Head suffix _20 (concentration 20), reading M83
  Th-T fluorescence of Aβ42 (sheet Fig. 7a), mean of three wells: 1.058
Head suffix _20 (concentration 20), reading M84
  Th-T fluorescence of Aβ42 (sheet Fig. 7a), mean of three wells: 1.053
Head suffix _50 (concentration 50), reading M63
  Th-T fluorescence of Aβ42 (sheet Fig. 7a), mean of three wells: 0.4695
Head suffix _50 (concentration 50), reading M64
  Th-T fluorescence of Aβ42 (sheet Fig. 7a), mean of three wells: 0.467
Head suffix _50 (concentration 50), reading M65
  Th-T fluorescence of Aβ42 (sheet Fig. 7a), mean of three wells: 0.4693
Head suffix _50 (concentration 50), reading M66
  Th-T fluorescence of Aβ42 (sheet Fig. 7a), mean of three wells: 0.4724
Head suffix _50 (concentration 50), reading M67
  Th-T fluorescence of Aβ42 (sheet Fig. 7a), mean of three wells: 0.4748
Head suffix _50 (concentration 50), reading M68
  Th-T fluorescence of Aβ42 (sheet Fig. 7a), mean of three wells: 0.4706
Head suffix _50 (concentration 50), reading M69
  Th-T fluorescence of Aβ42 (sheet Fig. 7a), mean of three wells: 0.4713
Head suffix _50 (concentration 50), reading M70
  Th-T fluorescence of Aβ42 (sheet Fig. 7a), mean of three wells: 0.4681
Head suffix _50 (concentration 50), reading M71
  Th-T fluorescence of Aβ42 (sheet Fig. 7a), mean of three wells: 0.4721
Head suffix _50 (concentration 50), reading M72
  Th-T fluorescence of Aβ42 (sheet Fig. 7a), mean of three wells: 0.4741
